{"source": "PubChem BioAssay AID328", "about": "(DTP/NCI, 2004)", "test_system": "BDF1 mice, P388 leukemia ip, median survival T/C", "experiment": "NCI In Vivo Anticancer Drug Screen. Data for tumor model P388 Leukemia (intraperitoneal) in B6D2F1 (BDF1) mice", "conditions": "endpoint: median survival time, higher = longer survival", "in_short": "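In tumour-bearing mice, survival after compound treatment is set against the vehicle group and given as a quotient.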", "key": {"[1]": {"conditions": "dose: 50.0 mg/kg/injection, schedule: Q01DX009 (ip), vehicle: saline with Tween-80"}, "[2]": {"conditions": "dose: 100.0 mg/kg/injection, schedule: Q01DX009 (ip), vehicle: saline with Tween-80"}, "[3]": {"conditions": "dose: 50.0 mg/kg/injection, schedule: Q01DX009 (ip), vehicle: saline"}, "[4]": {"conditions": "dose: 100.0 mg/kg/injection, schedule: Q04DX003 (ip), vehicle: saline"}, "[5]": {"conditions": "dose: 200.0 mg/kg/injection, schedule: Q04DX003 (ip), vehicle: saline"}}, "note": "“And” between values parts separate entries of the source, which are not always exact repeats. Equal entries are not always repeated. Toxic doses and inconclusive results are not listed."}
{"smiles": "CC(=O)O[C@H]1C(=O)O[C@@H]2C[C@H]3C(C)=CC(=O)[C@@H](O)[C@]3(C)[C@H]3[C@@]4(O)OC[C@]32[C@@H]1[C@@H](C)[C@H]4O", "values": [{"measurement": "T/C", "setting": "dose: 0.13 mg/kg/injection, schedule: Q01DX010 (ip), vehicle: alcohol", "result": "227 % of control"}, {"measurement": "T/C", "setting": "dose: 0.2 mg/kg/injection, schedule: Q01DX010 (ip), vehicle: alcohol", "result": "100 % of control"}, {"measurement": "T/C", "setting": "dose: 0.4 mg/kg/injection, schedule: Q01DX010 (ip), vehicle: alcohol", "result": "150 % of control"}, {"measurement": "T/C", "setting": "dose: 0.5 mg/kg/injection, schedule: Q01DX009 (ip), vehicle: saline with Tween-80", "result": "120 % of control"}, {"measurement": "T/C", "setting": "dose: 0.6 mg/kg/injection, schedule: Q01DX010 (ip), vehicle: alcohol", "result": "166 % of control"}, {"measurement": "T/C", "setting": "dose: 0.75 mg/kg/injection, schedule: Q01DX009 (ip), vehicle: saline", "result": "120 % of control"}, {"measurement": "T/C", "setting": "dose: 0.75 mg/kg/injection, schedule: Q03HX008 (ip), vehicle: saline", "result": "110 % of control"}, {"measurement": "T/C", "setting": "dose: 0.75 mg/kg/injection, schedule: Q03HX016 (ip), vehicle: saline", "result": "120 % of control"}, {"measurement": "T/C", "setting": "dose: 1.0 mg/kg/injection, schedule: Q01DX009 (ip), vehicle: saline", "result": "100 % of control"}, {"measurement": "T/C", "setting": "dose: 1.0 mg/kg/injection, schedule: Q01DX010 (ip), vehicle: other", "result": "116 % of control"}, {"measurement": "T/C", "setting": "dose: 1.0 mg/kg/injection, schedule: Q01DX010 (ip), vehicle: saline", "result": "190 % of control"}, {"measurement": "T/C", "setting": "dose: 1.5 mg/kg/injection, schedule: Q01DX005 (ip), vehicle: saline", "result": "100 % of control"}, {"measurement": "T/C", "setting": "dose: 1.5 mg/kg/injection, schedule: Q03HX008 (ip), vehicle: saline", "result": "110 % of control"}, {"measurement": "T/C", "setting": "dose: 1.5 mg/kg/injection, schedule: Q03HX024 (ip), vehicle: saline", "result": "110 % of control"}, {"measurement": "T/C", "setting": "dose: 2.0 mg/kg/injection, schedule: Q01DX010 (ip), vehicle: alcohol", "result": "120 % of control"}, {"measurement": "T/C", "setting": "dose: 2.0 mg/kg/injection, schedule: Q01DX010 (ip), vehicle: other", "result": "120 % of control"}, {"measurement": "T/C", "setting": "dose: 2.0 mg/kg/injection, schedule: Q01DX010 (ip), vehicle: saline", "result": "190 % of control"}, {"measurement": "T/C", "setting": "dose: 3.0 mg/kg/injection, schedule: Q01DX005 (ip), vehicle: saline", "result": "120 % of control"}, {"measurement": "T/C", "setting": "dose: 4.0 mg/kg/injection, schedule: Q01DX010 (ip), vehicle: alcohol", "result": "120 % of control"}, {"measurement": "T/C", "setting": "dose: 4.0 mg/kg/injection, schedule: Q01DX010 (ip), vehicle: saline", "result": "190 % of control"}, {"measurement": "T/C", "setting": "dose: 6.0 mg/kg/injection, schedule: Q01DX005 (ip), vehicle: saline", "result": "100 % of control"}, {"measurement": "T/C", "setting": "dose: 6.0 mg/kg/injection, schedule: Q01DX009 (ip), vehicle: saline", "result": "90 % of control"}, {"measurement": "T/C", "setting": "dose: 6.0 mg/kg/injection, schedule: Q01DX010 (ip), vehicle: alcohol", "result": "213 % of control"}, {"measurement": "T/C", "setting": "dose: 6.0 mg/kg/injection, schedule: Q04DX003 (ip), vehicle: saline", "result": "95 % of control"}, {"measurement": "T/C", "setting": "dose: 6.0 mg/kg/injection, schedule: Q08DX002 (ip), vehicle: saline", "result": "100 % of control"}, {"measurement": "T/C", "setting": "dose: 8.0 mg/kg/injection, schedule: Q01DX009 (ip), vehicle: saline", "result": "116 % of control"}, {"measurement": "T/C", "setting": "dose: 8.0 mg/kg/injection, schedule: Q01DX010 (ip), vehicle: other", "result": "158 % of control"}, {"measurement": "T/C", "setting": "dose: 9.0 mg/kg/injection, schedule: Q01DX010 (ip), vehicle: alcohol", "result": "159 % of control"}, {"measurement": "T/C", "setting": "dose: 12.0 mg/kg/injection, schedule: Q01DX001 (ip), vehicle: saline", "result": "110 % of control"}, {"measurement": "T/C", "setting": "dose: 12.0 mg/kg/injection, schedule: Q01DX005 (ip), vehicle: saline", "result": "120 % of control"}, {"measurement": "T/C", "setting": "dose: 12.0 mg/kg/injection, schedule: Q08DX002 (ip), vehicle: saline", "result": "95 % of control"}, {"measurement": "T/C", "setting": "dose: 13.0 mg/kg/injection, schedule: Q01DX010 (ip), vehicle: alcohol", "result": "213 % of control"}, {"measurement": "T/C", "setting": "dose: 24.0 mg/kg/injection, schedule: Q04DX003 (ip), vehicle: saline", "result": "100 % of control"}, {"measurement": "T/C", "setting": "dose: 24.0 mg/kg/injection, schedule: Q08DX002 (ip), vehicle: saline", "result": "100 % of control"}, {"measurement": "T/C", "setting": "dose: 48.0 mg/kg/injection, schedule: Q04DX003 (ip), vehicle: saline", "result": "100 % of control"}, {"measurement": "T/C", "setting": "dose: 48.0 mg/kg/injection, schedule: Q08DX002 (ip), vehicle: saline", "result": "100 % of control"}, {"measurement": "T/C", "setting": "dose: 96.0 mg/kg/injection, schedule: Q01DX001 (ip), vehicle: saline", "result": "110 % of control"}, {"measurement": "T/C", "setting": "dose: 96.0 mg/kg/injection, schedule: Q08DX002 (ip), vehicle: saline", "result": "100 % of control"}, {"measurement": "T/C", "setting": "dose: 192.0 mg/kg/injection, schedule: Q01DX001 (ip), vehicle: saline", "result": "110 % of control"}, {"measurement": "T/C", "setting": "dose: 57.0 micrograms/kg/injection, schedule: Q01DX010 (ip), vehicle: alcohol", "result": "111 % of control"}, {"measurement": "T/C", "setting": "dose: 87.0 micrograms/kg/injection, schedule: Q01DX010 (ip), vehicle: alcohol", "result": "107 % of control"}]}
{"smiles": "[Cu+2].[O-]c1ccc(Br)c2cccnc12.[O-]c1ccc(Br)c2cccnc12", "values": [{"measurement": "T/C", "setting": "dose: 12.5 mg/kg/injection, schedule: Q04DX003 (ip), vehicle: saline with Tween-80", "result": "100 % of control"}, {"measurement": "T/C", "setting": "dose: 25.0 mg/kg/injection, schedule: Q04DX003 (ip), vehicle: saline with Tween-80", "result": "90 % of control"}, {"measurement": "T/C", "setting": "dose: 50.0 mg/kg/injection, schedule: Q04DX003 (ip), vehicle: saline with Tween-80", "result": "95 % of control"}, {"measurement": "T/C", "setting": "dose: 75.0 mg/kg/injection, schedule: Q04DX003 (ip), vehicle: saline with Tween-80", "result": "90 % of control"}]}
{"smiles": "Cc1cc(C)c2nccc(/C=C/c3ccc(N(C)C)cc3)c2c1", "values": [{"measurement": "T/C", "setting": "[1]", "result": "93 % of control"}, {"measurement": "T/C", "setting": "[2]", "result": "103 % of control"}]}
{"smiles": "Cc1ccc(NC(=O)NCCCOc2ccc(N3C(N)=NC(N)=NC3(C)C)cc2Cl)cc1S(=O)(=O)F", "values": [{"measurement": "T/C", "setting": "dose: 45.0 mg/kg/injection, schedule: Q04DX003 (ip), vehicle: saline", "result": "100 % of control"}, {"measurement": "T/C", "setting": "[3]", "result": "155 % of control"}, {"measurement": "T/C", "setting": "dose: 65.0 mg/kg/injection, schedule: Q04DX003 (ip), vehicle: saline", "result": "109 % of control"}, {"measurement": "T/C", "setting": "dose: 75.0 mg/kg/injection, schedule: Q01DX009 (ip), vehicle: saline", "result": "150 % of control and 155 % of control"}, {"measurement": "T/C", "setting": "[4]", "result": "122 % of control"}, {"measurement": "T/C", "setting": "dose: 110.0 mg/kg/injection, schedule: Q01DX009 (ip), vehicle: saline", "result": "160 % of control"}, {"measurement": "T/C", "setting": "dose: 150.0 mg/kg/injection, schedule: Q01DX009 (ip), vehicle: saline", "result": "90 % of control"}, {"measurement": "T/C", "setting": "[5]", "result": "186 % of control"}]}
{"smiles": "COc1ccc2c(c1)N(C)CCCC2=O", "values": [{"measurement": "T/C", "setting": "dose: 3.12 mg/kg/injection, schedule: Q01DX009 (ip), vehicle: saline", "result": "91 % of control"}, {"measurement": "T/C", "setting": "dose: 6.25 mg/kg/injection, schedule: Q01DX009 (ip), vehicle: saline", "result": "103 % of control"}, {"measurement": "T/C", "setting": "dose: 12.5 mg/kg/injection, schedule: Q01DX009 (ip), vehicle: saline", "result": "91 % of control"}, {"measurement": "T/C", "setting": "dose: 25.0 mg/kg/injection, schedule: Q01DX009 (ip), vehicle: saline", "result": "87 % of control and 91 % of control"}, {"measurement": "T/C", "setting": "[3]", "result": "108 % of control and 113 % of control"}, {"measurement": "T/C", "setting": "dose: 50.0 mg/kg/injection, schedule: Q04DX003 (ip), vehicle: saline", "result": "99 % of control"}, {"measurement": "T/C", "setting": "dose: 100.0 mg/kg/injection, schedule: Q01DX009 (ip), vehicle: saline", "result": "92 % of control"}, {"measurement": "T/C", "setting": "[4]", "result": "103 % of control"}, {"measurement": "T/C", "setting": "dose: 200.0 mg/kg/injection, schedule: Q01DX009 (ip), vehicle: saline", "result": "89 % of control"}, {"measurement": "T/C", "setting": "[5]", "result": "99 % of control"}]}
{"smiles": "CCOC(=O)CCC[P+](c1ccccc1)(c1ccccc1)c1ccccc1", "values": [{"measurement": "T/C", "setting": "dose: 5.0 mg/kg/injection, schedule: Q01DX009 (ip), vehicle: saline with Tween-80", "result": "101 % of control"}, {"measurement": "T/C", "setting": "dose: 10.0 mg/kg/injection, schedule: Q01DX009 (ip), vehicle: saline with Tween-80", "result": "100 % of control"}, {"measurement": "T/C", "setting": "dose: 13.2 mg/kg/injection, schedule: Q01DX009 (ip), vehicle: saline with Tween-80", "result": "118 % of control"}, {"measurement": "T/C", "setting": "dose: 20.0 mg/kg/injection, schedule: Q01DX009 (ip), vehicle: saline with Tween-80", "result": "101 % of control and 122 % of control"}, {"measurement": "T/C", "setting": "dose: 30.0 mg/kg/injection, schedule: Q01DX009 (ip), vehicle: saline with Tween-80", "result": "118 % of control"}, {"measurement": "T/C", "setting": "[1]", "result": "113 % of control"}, {"measurement": "T/C", "setting": "dose: 75.0 mg/kg/injection, schedule: Q01DX009 (ip), vehicle: saline with Tween-80", "result": "152 % of control"}, {"measurement": "T/C", "setting": "[2]", "result": "118 % of control"}, {"measurement": "T/C", "setting": "dose: 100.0 mg/kg/injection, schedule: Q04DX003 (ip), vehicle: saline with Tween-80", "result": "110 % of control"}, {"measurement": "T/C", "setting": "dose: 160.0 mg/kg/injection, schedule: Q01DX009 (ip), vehicle: saline with Tween-80", "result": "121 % of control"}, {"measurement": "T/C", "setting": "dose: 200.0 mg/kg/injection, schedule: Q04DX003 (ip), vehicle: saline with Tween-80", "result": "115 % of control"}]}
